Data on eleven compounds can be found in patent US20260070918A1, “HETEROBICYCLIC COMPOUNDS AS EP4 RECEPTOR ANTAGONISTS” (priority 2022, published 2026).

For one series, the target named is EP4 receptor (Homo sapiens (Human), UniProt P35408). In words: EP4 receptor binding assay (inhibition of [3H]PGE2 binding). The settings on record: human recombinant Chem-1 cells, 1 nM [3H]PGE2, 2 hours @25° C. On the procedure:
Transfected HEK 293(ebna) cells are maintained in culture and harvested, and membranes are prepared by differential centrifugation, following lysis of the cells in the presence of protease inhibitors, for use in receptor binding assays. Prostanoid receptor binding assays (for DP1, DP2 (CRTH2), EP1, EP2, EP3-III, EP4, FP, IP, and TP) are performed in 10 mM MES/KOH (pH 6.0) (EPs, FP and TP) or 10 mM HEPES/KOH (pH 7.4) (DPs and IP), containing 1 mM EDTA, 2.5-30 mM divalent cation and the appropriate radioligand that specifically binds to a target prostanoid receptor. Synthetic compounds are added in dimethyl sulfoxide which is kept constant at 1% (v/v) in all incubations. The reaction is initiated by addition of membrane protein. Non-specific binding is determined in the presence of 10 μM of the corresponding non-radioactive prostanoid. Incubations are conducted for 60-90 min at room temperature or 30° C. and terminated by rapid filtration. Compound binding is calculated as a % inhibition of the binding of the radioligand after subtracting nonspecific binding from total binding. The residual specific binding at each ligand concentration is calculated and expressed as a function of ligand concentration to construct sigmoidal concentration-response curve. Half maximal inhibitory concentration, IC50 values of compounds are determined by nonlinear regression analysis of the concentration-response curves using Hill equation curve fitting equation Y=D+[(A−D)/(1+C/IC50)^H], where Y=specific binding, A=left asymptote of the curve, D=right asymptote of the curve, C=compound concentration, and H=slope factor. The binding affinity of the compounds is determined by calculating the equilibrium inhibition constant (Ki) from the equation Ki═InPt/1+[radioligand]/Kd where Kd is the equilibrium dissociation constant for the radioligand: receptor interaction and InPt is the inflection point of the dose-response curves.
EP4 receptor binding assays were performed at MSD Pharma Service in Taiwan under the following assay conditions: • Source: Human recombinant Chem-1 cells • Ligand: 1 nM [^3H]

The nature of series [1]: Liver microsomal stability, dog. The format is in vitro ADME. The settings on record: pooled dog liver microsomes; for microsomal CLint: read-out: In vitro CLint; for half-life: read-out: In vitro T1/2; for CLint scaled: read-out: Scale-up CLint. On the procedure: (§1) Microsomal stability assay is performed to understand the metabolism of the representative compounds.
(§2) In vitro microsomal stability was determined in pooled human, dog, rat, and mouse liver microsomes. Test compounds (Table 2) were incubated in the presence and absence of NADPH for 0-60 min and the amount of remaining compound was quantified through LC-MS/MS analysis.
A general note: Liver microsomes are vesicles of endoplasmic reticulum, rich in cytochrome P450 enzymes.

Series [2] in a line: Liver microsomal stability, human. It is filed as in vitro ADME. The settings on record: pooled human liver microsomes; for microsomal CLint: read-out: In vitro CLint; for half-life: read-out: In vitro T1/2; for CLint scaled: read-out: Scale-up CLint. On the procedure:
as §1, §2

Series [3] can be described thus: Rat pharmacokinetic (PK) assay. It is filed as in vivo, Sprague-Dawley rat. On the procedure:
Test compound was dissolved in 10% DMSO, 40% PEG-400, and 50% water for intravenous (i.v.) and oral (p.o.) administration to rat. […] Three male animals received single p.o. doses by gavage tube (5 mg/kg). Blood samples were collected into K2-EDTA tubes from the jugular vein at 0.083, 0.25, 0.5, 1, 2, 4, 8, and 24 h post dosing. After centrifugation, plasma samples were prepared via protein precipitation and detected through LC-MS/MS. The pharmacokinetics parameters were calculated using Phoenix software V 8.3.4.

Series [4] can be described thus: Liver microsomal stability, rat. Conditions: pooled rat liver microsomes; for microsomal CLint: read-out: In vitro CLint; for half-life: read-out: In vitro T1/2; for CLint scaled: read-out: Scale-up CLint. The format is in vitro ADME. On the procedure:
as §1, §2

Series [5] in a line: Liver microsomal stability, mouse. The format is in vitro ADME. The settings on record: pooled mouse liver microsomes; for microsomal CLint: read-out: In vitro CLint; for half-life: read-out: In vitro T1/2; for CLint scaled: read-out: Scale-up CLint. The method, then:
as §1, §2

Setting [6] is: male, Sprague-Dawley, plasma, Rat iv, dose 5 mg/kg (table).
Where [7] appears, read: male, Sprague-Dawley, plasma, Rat po, dose 10 mg/kg (table).

Sequence of EP4 receptor (P35408 whole entry): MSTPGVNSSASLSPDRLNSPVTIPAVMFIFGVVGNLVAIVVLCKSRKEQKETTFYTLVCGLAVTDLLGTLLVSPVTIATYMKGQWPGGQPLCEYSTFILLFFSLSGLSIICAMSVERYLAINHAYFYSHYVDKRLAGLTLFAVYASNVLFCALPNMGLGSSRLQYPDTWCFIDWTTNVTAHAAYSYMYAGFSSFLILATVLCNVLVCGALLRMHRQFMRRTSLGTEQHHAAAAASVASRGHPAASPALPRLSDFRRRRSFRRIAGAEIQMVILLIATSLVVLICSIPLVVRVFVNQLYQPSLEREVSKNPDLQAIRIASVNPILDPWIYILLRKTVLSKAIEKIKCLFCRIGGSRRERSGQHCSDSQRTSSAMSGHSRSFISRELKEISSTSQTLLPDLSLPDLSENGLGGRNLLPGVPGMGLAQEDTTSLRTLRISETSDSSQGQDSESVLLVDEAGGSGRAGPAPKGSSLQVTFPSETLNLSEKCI

By IC50 is commonly meant the concentration needed to halve the response being measured. As to “3-[1-[[2-methyl-4-[[4-(trifluoromethyl)phenyl]methyl]thieno[3,2-b]pyrrole-3-carbonyl]amino]ethyl]bicyclo[1.1.1]pentane-1-carboxylic acid [Example 10]”, the IC50 at EP4 receptor was 620 nM.
One may read the AUC(0-inf) as the area under the concentration-time curve extrapolated to infinity. Low values mean low exposure, high ones high exposure. What is called AUC(0-t) is exposure summed from dosing to a finite time, without extrapolation to infinity. Low readings indicate low exposure, high ones high exposure. Usually MRT stands for the average time that molecules of a dose stay in the body. One may read the Cmax as the maximum level reached in the sampled fluid or tissue. A word on the Tmax: it is the time from dosing to the highest level. Broadly, the bioavailability is dose-corrected exposure relative to a reference, in per cent. The low end stands for little systemic uptake, the high end for much systemic uptake. Regarding `O=C(O)c1ccc(C2(NC(=O)c3c(Cl)sc4ccn(Cc5ccc(C(F)(F)F)cc5)c34)CC2)cc1` [Example 1, 4-[1-[[2-chloro-4-[[4-(trifluoromethyl)phenyl]methyl]thieno[3,2-b]pyrrole-3-carbonyl]amino]cyclopropyl]benzoic acid], in series [1], the microsomal CLint was found to be 9.89 µL/min/mg, the half-life was 2.33 h and the CLint scaled was 24.6 mL/min/kg. In series [2], the microsomal CLint was determined as 11.4 µL/min/mg, the half-life is 2.03 h and the CLint scaled stood at 14.3 mL/min/kg. In addition, in series [3] (Rat iv, dose 5 mg/kg (table)), the CL_obs stood at 2.57 mL/min/kg and the Vss_obs is 1.64 L/kg. In series [3] (setting [6]), this compound had an AUC(0-inf) of 33600 ng·h/mL, an AUC(0-t) of 27700 ng·h/mL, a C0 of 8380 ng/mL and an MRT of 5.93 h. This compound showed a half-life in series [3] (setting [6]) of 9.47 h. In series [3] (setting [7]), this compound registered an AUC(0-inf) of 26700 ng·h/mL, an AUC(0-t) of 23400 ng·h/mL, a Cmax of 1830 ng/mL and an MRT of 7.98 h. Also, in series [3] (setting [7]), the Tmax is 6.67 h and the half-life was 8.97 h. This compound also showed a bioavailability in series [3] (male, Sprague-Dawley, plasma, Rat po, dose 10 mg/kg vs iv 5 mg/kg (table)) of 42.3%. Moreover, in series [4], the microsomal CLint was determined as 13.4 µL/min/mg, the half-life was 1.73 h and the CLint scaled came out at 24 mL/min/kg. Further, the IC50 at EP4 receptor was 0.25 nM. Further, in series [5], the microsomal CLint came out at 15 µL/min/mg, the half-life worked out at 1.54 h and the CLint scaled was found to be 66.1 mL/min/kg.
On to `O=C(O)c1ccc(C2(NC(=O)c3c(CO)sc4ccn(Cc5ccc(C(F)(F)F)cc5)c34)CC2)cc1` [Example 2, 4-[1-[[2-(hydroxymethyl)-4-[[4-(trifluoromethyl)phenyl]methyl]thieno[3,2-b]pyrrole-3-carbonyl]amino]cyclopropyl]benzoic acid], for which the IC50 at EP4 receptor worked out at 1.1 nM.
Regarding `O=C(O)c1ccc(C2(NC(=O)c3c(F)sc4ccn(Cc5ccc(C(F)(F)F)cc5)c34)CC2)cc1` [Example 3, 4-(1-(2-fluoro-4-(4-(trifluoromethyl)benzyl)-4H-thieno[3,2-b]pyrrole-3-carboxamido)cyclopropyl)benzoic acid], the microsomal CLint in series [1] worked out at 3.2 µL/min/mg; in series [2] it was 4.03 µL/min/mg; in series [4], 8.4 µL/min/mg; in series [5], 6.85 µL/min/mg. Besides, the half-life is 7.23 h in series [1], 5.73 h in series [2], 2.75 h in series [4] and 3.37 h in series [5]. Moreover, the CLint scaled in series [1] worked out at 7.97 mL/min/kg; in series [2] it was 5.05 mL/min/kg; in series [4], 15 mL/min/kg; in series [5] it was 30.1 mL/min/kg. At EP4 receptor, the IC50 is 0.48 nM.
As for `COc1sc2ccn(Cc3ccc(C(F)(F)F)cc3)c2c1C(=O)NC1(c2ccc(C(=O)O)cc2)CC1` [Example 4, 4-(1-(2-methoxy-4-(4-(trifluoromethyl)benzyl)-4H-thieno[3,2-b]pyrrole-3-carboxamido)cyclopropyl)benzoic acid], the microsomal CLint in series [1] worked out at 6.06 µL/min/mg; in series [2], 3.24 µL/min/mg; in series [4] it was 11.1 µL/min/mg; in series [5], 10.6 µL/min/mg. For the same compound, the half-life worked out at 3.82 h in series [1], 7.13 h in series [2], 2.08 h in series [4] and 2.18 h in series [5]. The CLint scaled in series [1] came out at 15.1 mL/min/kg; in series [2], 4.06 mL/min/kg; in series [4], 19.8 mL/min/kg; in series [5], 46.7 mL/min/kg. For the same compound, the IC50 at EP4 receptor worked out at 0.35 nM.
Consider `O=C(NC1(C23CC(C(=O)O)(C2)C3)CC1)c1c(Cl)sc2ccn(Cc3ccc(C(F)(F)F)cc3)c12` [Example 5, 3-[1-[[2-chloro-4-[[4-(trifluoromethyl)phenyl]methyl]thieno[3,2-b]pyrrole-3-carbonyl]amino]cyclopropyl]bicyclo[1.1.1]pentane-1-carboxylic acid], for which the IC50 on EP4 receptor was 28 nM.
In the case of `O=C(NC1(C23CCC(C(=O)O)(CC2)CC3)CC1)c1c(Cl)sc2ccn(Cc3ccc(C(F)(F)F)cc3)c12` [Example 6, 4-[1-[[2-chloro-4-[[4-(trifluoromethyl)phenyl]methyl]thieno[3,2-b]pyrrole-3-carbonyl]amino]cyclopropyl]bicyclo[2.2.2]octane-1-carboxylic acid], the IC50 at EP4 receptor amounted to 8.4 nM.
In the case of `Cc1sc2ccn(Cc3ccc(C(F)(F)F)cc3)c2c1C(=O)NC1(C23CC(C(=O)O)(C2)C3)CC1` [Example 7, 3-[1-[[2-methyl-4-[[4-(trifluoromethyl)phenyl]methyl]thieno[3,2-b]pyrrole-3-carbonyl]amino]cyclopropyl]bicyclo[1.1.1]pentane-1-carboxylic acid], the IC50 on EP4 receptor stood at 50 nM.
Consider `Cc1sc2ccn(Cc3ccc(C(F)(F)F)cc3)c2c1C(=O)NC1(C23CCC(C(=O)O)(CC2)CC3)CC1` [Example 8, 4-[1-[[2-methyl-4-[[4-(trifluoromethyl)phenyl]methyl]thieno[3,2-b]pyrrole-3-carbonyl]amino]cyclopropyl]bicyclo[2.2.2]octane-1-carboxylic acid], for which, on EP4 receptor, the concentration for half-maximal inhibition (IC50) came to 4.9 nM.
Consider `CC(NC(=O)c1c(Cl)sc2ccn(Cc3ccc(C(F)(F)F)cc3)c12)C12CC(C(=O)O)(C1)C2` (stereo not shown) [Example 9, 3-[1-[[2-chloro-4-[[4-(trifluoromethyl)phenyl]methyl]thieno[3,2-b]pyrrole-3-carbonyl]amino]ethyl]bicyclo[1.1.1]pentane-1-carboxylic acid], for which the IC50 at EP4 receptor was 180 nM.
With `O=C(O)c1ccc(C2(NC(=O)c3c(C(F)(F)F)sc4ccn(Cc5ccc(C(F)(F)F)cc5)c34)CC2)cc1` [Example 11, 4-(1-(2-(trifluoromethyl)-4-(4-(trifluoromethyl)benzyl)-4H-thieno[3,2-b]pyrrole-3-carboxamido)cyclopropyl)benzoic acid], on EP4 receptor, the IC50 was determined as 1.2 nM.
